Measurements taken from the supplement of paper PMC10307832.

Legend:
Experiment in all cases: relative viability (nuclei count vs DMSO), 5 days (fraction); higher = more cells survive
QS11 + Phenformin = compound: C1CC2=C(C1)C=C(C=C2)OC3=NC(=C4C(=N3)N(C=N4)CC5=CC=C(C=C5)C6=CC=CC=C6)N[C@@H](CC7=CC=CC=C7)CO [QS11] + N=C(N)NC(=N)NCCc1ccccc1 [Phenformin] (partner 250 µM)
How it was run: (§1)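 Relative viability is defined as nuclei in treated wells over nuclei in vehicle wells. Duplicate plates were run and medians reported. Lung cancer cell lines in 1536-well plates were dosed by pin tool one day after seeding, with one drug or with a fixed anchor-drug dose plus five library-drug doses (not always all listed) in √10 steps, and nuclei were counted after 5 days.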

AZ628 + Crizotinib = compound: CC1=C(C=C(C=C1)NC(=O)C2=CC(=CC=C2)C(C)(C)C#N)NC3=CC4=C(C=C3)N=CN(C4=O)C [AZ628] + C[C@@H](Oc1cc(-c2cnn(C3CCNCC3)c2)cnc1N)c1c(Cl)ccc(F)c1Cl [Crizotinib] (partner 1 µM)
How it was run: as §1

AZ628 + Phenformin = compound: CC1=C(C=C(C=C1)NC(=O)C2=CC(=CC=C2)C(C)(C)C#N)NC3=CC4=C(C=C3)N=CN(C4=O)C [AZ628] + N=C(N)NC(=N)NCCc1ccccc1 [Phenformin] (partner 250 µM)
How it was run: as §1

[1] = compound: C[As](C)SC[C@H](NC(=O)CC[C@H](N)C(=O)O)C(=O)NCC(=O)O [Darinaparsin] + Cc1cc(Nc2cc(N3CCN(C)CC3)nc(Sc3ccc(NC(=O)C4CC4)cc3)n2)n[nH]1 [Tozasertib] (partner 0.1 µM)
How it was run: as §1

| Cell Line | relative viability (QS11 + Phenformin; first compound 0.08 µM) | relative viability (QS11 + Phenformin; first compound 0.253 µM) | relative viability (QS11 + Phenformin; first compound 0.8 µM) | relative viability (QS11 + Phenformin; first compound 2.53 µM) | relative viability (QS11 + Phenformin; first compound 8 µM) | relative viability (AZ628 + Crizotinib; first compound 0.08 µM) | relative viability (AZ628 + Crizotinib; first compound 0.253 µM) | relative viability (AZ628 + Crizotinib; first compound 0.8 µM) | relative viability (AZ628 + Crizotinib; first compound 2.53 µM) | relative viability (AZ628 + Crizotinib; first compound 8 µM) | relative viability (AZ628 + Phenformin; first compound 0.08 µM) | relative viability (AZ628 + Phenformin; first compound 0.253 µM) | relative viability (AZ628 + Phenformin; first compound 0.8 µM) | relative viability (AZ628 + Phenformin; first compound 2.53 µM) | relative viability (AZ628 + Phenformin; first compound 8 µM) | relative viability ([1]; first compound 0.08 µM) | relative viability ([1]; first compound 0.8 µM) | relative viability ([1]; first compound 2.53 µM) | relative viability ([1]; first compound 8 µM) |
| --- | --- | --- | --- | --- | --- | --- | --- | --- | --- | --- | --- | --- | --- | --- | --- | --- | --- | --- | --- |
| LCLC-103H | 0.315 | 0.403 | 0.341 | 0.342 | 0.382 | 1.13 | 1.08 | 1.11 | 1.09 | 1.01 | 0.358 | 0.329 | 0.343 | 0.302 | 0.308 | 0.491 | 0.517 | 0.507 | 0.441 |
| LK-2 | 0.243 | 0.76 | 0.524 | 0.426 | 0.411 | 0.192 | 0.197 | 0.244 | 0.203 | 0.224 | 0.508 | 0.312 | 0.557 | 0.304 | 0.172 | 0.203 |  | 0.177 | 0.175 |
| LOU-NH91 | 0.685 | 0.62 | 0.657 | 0.67 | 0.663 | 0.721 | 0.755 | 0.755 | 0.731 | 0.606 | 0.749 | 0.654 | 0.776 | 0.661 | 0.438 | 0.743 | 0.647 | 0.666 | 0.761 |
| LU99A | 0.768 | 0.975 | 1.07 | 0.827 | 0.869 | 0.601 | 0.505 | 0.586 | 0.566 | 0.286 | 0.808 | 0.67 | 0.694 | 0.782 | 0.551 | 0.262 | 0.295 | 0.256 | 0.243 |
| LXF-289 | 0.468 | 0.509 | 0.486 | 0.495 | 0.541 | 0.791 | 0.749 | 0.768 | 0.76 | 0.497 | 0.527 | 0.499 | 0.473 | 0.501 | 0.362 | 0.204 | 0.195 | 0.204 | 0.229 |
| NCI-H23 | 0.769 | 0.779 | 0.853 | 0.678 | 0.877 | 0.498 | 0.49 | 0.347 | 0.493 | 0.456 | 0.841 | 0.806 | 0.619 | 0.716 | 0.595 | 0.372 | 0.333 | 0.348 | 0.754 |
| NCI-H322M | 0.784 | 0.824 | 0.803 | 0.877 | 1.06 | 0.819 | 1.04 | 1.01 | 0.795 | 0.856 | 0.783 | 0.737 | 0.725 | 0.769 | 0.663 | 0.564 | 0.464 | 0.423 | 0.492 |
| NCI-H358 | 0.297 | 0.378 | 0.412 | 0.5 | 0.507 | 0.393 | 0.435 | 0.583 | 0.51 | 0.32 | 0.32 | 0.208 | 0.216 | 0.222 | 0.216 | 0.1 | 0.102 | 0.124 | 0.101 |
| NCI-H441 | 0.861 | 0.958 | 0.71 | 1.01 | 0.884 | 0.809 | 0.569 | 0.541 | 0.694 | 0.78 | 0.991 | 0.71 | 0.822 | 0.712 | 0.469 | 0.839 | 0.673 | 0.72 | 0.539 |
| NCI-H460 | 0.556 | 0.498 | 0.477 | 0.442 | 0.227 | 1.03 | 0.92 | 0.872 | 0.7 | 0.38 | 0.52 | 0.511 | 0.452 | 0.404 | 0.189 | 0.735 | 0.438 | 0.326 | 0.792 |
| NCI-H520 | 0.476 | 0.687 | 0.607 | 0.489 | 0.574 | 0.707 | 0.788 | 0.601 | 0.833 | 0.576 | 0.583 | 0.452 | 0.64 | 0.476 | 0.398 | 0.468 | 0.369 | 0.348 | 0.409 |
| NCI-H596 | 0.736 | 0.81 | 0.804 | 0.832 | 0.874 | 0.903 | 1.18 | 1.08 | 1.04 | 1.16 | 0.722 | 0.85 | 0.969 | 0.781 | 0.808 | 1.13 | 0.958 | 0.872 | 0.979 |
| NCI-H647 | 0.372 | 0.57 | 0.514 | 0.478 | 0.527 | 1.24 | 1.03 | 1.04 | 0.984 | 0.793 | 0.695 | 0.525 | 0.467 | 0.323 | 0.405 | 0.0828 | 0.282 | 0.232 | 0.385 |
| NCI-H650 | 0.428 | 0.486 | 0.475 | 0.392 | 0.399 | 0.771 | 0.73 | 0.553 | 0.68 | 0.599 | 0.536 | 0.471 | 0.552 | 0.509 | 0.498 | 0.788 | 0.693 | 0.792 | 0.807 |
| NCI-H661 | 0.221 | 0.297 | 0.273 | 0.297 | 0.261 | 0.975 |  |  | 1.1 | 1.01 | 0.283 | 0.266 | 0.278 | 0.292 | 0.275 | 0.357 | 0.351 | 0.377 | 0.361 |
| NCI-H727 | 0.88 | 0.442 | 0.459 | 0.557 | 0.372 | 0.706 | 0.523 | 0.452 | 0.368 | 0.258 | 0.422 | 0.386 | 0.374 | 0.329 | 0.341 | 0.731 | 0.552 | 0.699 | 0.599 |
| NCI-H838 | 0.629 | 0.468 | 0.519 | 0.517 | 0.531 | 0.84 | 0.842 | 0.719 | 0.747 | 0.655 | 0.666 | 0.551 | 0.502 | 0.493 | 0.474 | 0.275 | 0.24 | 0.256 | 0.304 |
